Assay results: patent US20230174526A1, “BENZOTHIAZOLYL BIARYL COMPOUND, AND PREPARATION METHOD AND USE” (SHANGHAI RINGENE BIOPHARMA CO., LTD., priority 2020, published 2023)
Like-named read-outs stand apart in the source and are kept apart here.

Assays:
[1] = Metabolic stability assay, monkey liver microsomes; format: in vitro ADME; details: monkey liver microsomes 0.5 mg/mL, 1 µM compound, read-out: Liver microsomal stability (T½ /min) monkey
Experimental: (§1) Metabolic stability assay: A warm incubation for metabolic stability was performed with a system of 150 µL of liver microsomes (final concentration 0.5 mg/mL) containing NADPH (final concentration 1 mM), 1 µM of the test compound and positive control midazolam or negative control atenolol, and the reaction was terminated with acetonitrile containing tinidazole at 0 min, 5 min, 10 min and 30 min, respectively. The reaction was vortexed for 10 min and centrifuged at 15000 rmp for 10 min, and 50 µL of supernatant was taken into the 96-well plate for sampling. The metabolic stability of the compound was calculated by measuring the relative reduction of the drugs.

[2] = Metabolic stability assay, human liver microsomes; format: in vitro ADME; details: human liver microsomes 0.5 mg/mL, 1 µM compound, read-out: Liver microsomal stability (T½ /min) human
Experimental: as §1

[3] = Metabolic stability assay, mouse liver microsomes; format: in vitro ADME; details: mouse liver microsomes 0.5 mg/mL, 1 µM compound, read-out: Liver microsomal stability (T½ /min) Mouse
Experimental: as §1

[4] = Metabolic stability assay, rat liver microsomes; format: in vitro ADME; details: rat liver microsomes 0.5 mg/mL, 1 µM compound, read-out: Liver microsomal stability (T½ /min) Rat
Experimental: as §1

[5] = target: T1, KRAS^G12C/SOS1 (Homo sapiens, UniProt P01116, G12C); test: KRAS^G12C/SOS1 protein-protein interaction Binding assay (CisBio kit); details: class symbols
T1 construct: purchased CisBio
Experimental: CisBio’s KRAS^G12C/SOS1 kit was used to test the efficacy of the compound on inhibiting the protein-protein interaction between SOS1 and KRAS^G12Cby Binding assay.Results were expressed as IC50values.
Test methods: (1) the test compound was tested at a concentration of 1000 nM. Diluted to 3-fold diluted compound of a 200-fold final concentration of 100% DMSO solution in a 384-well plate at 10 concentrations. 50 nL of 200-fold final concentration of compound was transferred to the destination plate 384 well plate using a dispenser Echo 550.50 nL of 100% DMSO was added to the negative control wells and positive control wells; (2) 4-fold final concentration of Tag1 SOS1 solution was prepared using Diluent buffer; (3) 2.5 µL of 4-fold final concentration of Tag1 SOS1 solution was added to the 384-well plate; (4) 4-fold final concentration of Tag2 KRAS^G12C solution was prepared using Diluent buffer; (5) 2.5 µL of 4-fold final concentration of Tag2 KRAS^G12C solution was added to compound wells and positive control wells, respectively; 2.5 µL of diluent buffer was added to negative control wells; (6) the 384-well plate was centrifuged at 1000 rpm for 30 seconds, shaken and mixed, and incubated at room temperature for 15 min; (7) 1-fold final concentration of Anti Tag1 TB3+ solution and 1-fold final concentration of Anti Tag2 XL665 solution were prepared with Detection buffer, and 5 µL of the mixture was added to each well after mixing the two solutions; (8) the 384-well plate was centrifuged at 1000 rpm for 30 seconds, shaken and mixed, and incubated at room temperature for 120 minutes; (9) the Envision enzyme marker was used to read
Em665/620; (10) data analysis, calculation formula; where Min signal is the mean value of negative control wells, Max signal is the mean value of positive control wells.The log value of concentration was used as the X-axis and the percentage inhibition as the Y-axis to fit the quantitative efficacy curve using the log(inhibitor) vs. response Variable slope of the quantitative efficacy curve of the analytical software GraphPad Prism 5 to derive the IC50 value of each compound on the enzyme activity.The fitting formula was: Y=Bottom+(Top Bottom)/(1+10^A((LogIC50X)^∗ HillSlope)).

[6] = system: phosphorylated ERK levels of MiaPaca-2; test: ERK phosphorylation (western blot), MiaPaca-2; format: cell-based; details: Homo sapiens, MIA PaCa-2, 24 h
Experimental: (§2) Test method 3 (ERK phosphorylation): Miapaca-2 or H358 cells were inoculated at certain concentrations in 96-well plates and incubated overnight at 37° C., 5% CO2 in a cell culture incubator, and serial dilutions of the test compound (5 concentrations, 3-fold dilution) were added to the plates the next day for 24 h (Miapaca-2) or 3 h (H358), then lysis solution containing protease and phosphatase inhibitor were added to lyse the cells to extract proteins and western blot method was used to detect the level of p-ERK.

[7] = system: MiaPaca-2 cells (pancreatic cancer); test: Proliferation test method 1 (2D, MTT), MiaPaca-2; format: cell-based; details: 5-7 days, read-out: IC50/nM proliferation inhibitory activity on MiaPaca-2 cells
Experimental: (§3) Test method 1 (2D):NCI-H358 (lung cancer) and MiaPaca-2 cells (pancreatic cancer) cells (100 µL/well, 20,000 cells/mL) were inoculated in 96-well culture plates supplemented with 10% fetal bovine serum and 1% penicillin/streptomycin sulfate, respectively.Using 0.5% dimethyl sulfoxide as a blank control, cells were treated with a solution of the compound to be tested at a starting concentration of 10 µM, tripled diluted testing solution of the compound in eight gradients were used to treat cells, and then incubated in a 5% CO2 incubator for a certain period of time (5-7 days).At the end of incubation, 10 µL of MTT stock solution (5 mg/mL) was added to each well.The culture plates were incubated at 37° C. for 4 h and then the medium was removed.Dimethyl sulfoxide (100 µL) was added to each well and then shaken sufficiently. The absorbance of the product formazanwas measured at 570 nm on the Thermo Scientific Varioskan Flash multimode reader.IC50 values were obtained by fitting dose-response data into a three-parameter nonlinear regression model using GraphPad Prism 6.0 software.

[8] = system: NCI-H358 (lung cancer) cells; test: Proliferation test method 1 (2D, MTT), NCI-H358; format: cell-based; details: Homo sapiens, 5-7 days, read-out: IC50 proliferation inhibitory activity against NCI-H358
Experimental: as §3

[9] = system: phosphorylated ERK levels of NCI-H358; test: ERK phosphorylation (western blot), H358; format: cell-based; details: Homo sapiens, 3 h
Experimental: as §2

[10] = system: NCI-H358 cells; test: Proliferation test method 2 (3D, Cell Titer Glo 3D), NCI-H358; format: cell-based; details: Homo sapiens, NCI-H358, 96 h, read-out: IC50 cell proliferation inhibitory activity against NCI-H358
Experimental: (§4) Test method 2 (3D): The tumor cells in the logarithmic growth phase were diluted with culture solution to a certain concentration and inoculated on the 96-well plate on the ultra-low attachment surface, and the culture medium was 80 µL/well. Cells were incubated overnight at 37° C. in a humidity chamber. On the second day, a series of diluted test compounds (10 concentrations, 3 times dilution) were added to the plate, 20 µL/well, incubated in an incubator for 96h.The plates are removed and placed at room temperature and incubated with an equal volume of Cell Titer Glo®3D reagent for 1 h. The signal is detected by the En Vision™ plate reader. […] A four-parameter nonlinear regression curve was fitted to the percent inhibition for each concentration of the compound and the IC50 was calculated.

[11] = system: MiaPaca-2 cells; test: Proliferation test method 2 (3D, Cell Titer Glo 3D), MiaPaca-2; format: cell-based; details: Homo sapiens, MIA PaCa-2, 96 h, read-out: IC50 cell proliferation inhibitory activity against MiaPaca-2
Experimental: as §4

T1 sequence (P01116 1-188 isoform P01116-2 G12C): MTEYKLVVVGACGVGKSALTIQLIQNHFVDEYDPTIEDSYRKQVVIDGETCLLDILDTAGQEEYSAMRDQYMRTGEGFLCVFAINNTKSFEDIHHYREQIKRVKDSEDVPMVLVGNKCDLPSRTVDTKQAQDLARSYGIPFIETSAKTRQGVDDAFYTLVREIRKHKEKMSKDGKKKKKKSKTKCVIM

Row | Structure (SMILES) | half-life at 1 µM [1] | half-life at 1 µM [2] | half-life at 1 µM [3] | half-life at 1 µM [4] | IC50 [5] | IC50 [6] | IC50 ([7]; 2D) | IC50 ([7]; Homo sapiens, MIA PaCa-2, 2D) | IC50 [8] | IC50 [9] | IC50 [10] | IC50 [11]
1 | C=CC(=O)N1CC2C(=O)N(C)c3cnc4c(F)c(-c5c(O)cccc5F)c(Cl)cc4c3N2CC1C (single isomer, unassigned) [Comparative Compound 2-1, reference compound] | 42 min | 54 min | 47 min | 41 min | 50 to 200 nM | – | – | – | – | – | – | –
2 | C=CC(=O)N1CCN(c2c(C#N)cnc3c(F)c(-c4ccc(F)c5sc(N)nc45)c(Cl)cc23)[C@@H](C)C1 [Example 10, 4-((S)-4-Acryloyl-2-Methylpiperazin-1-yl)-7-(2-Amino-7-Fluorobenzo[d]Thiazol-4-yl)-6-Chloro-8-Fluoroquinolin-3-Cyano] | – | – | – | – | 50 to 200 nM | < 500 nM | 57.2 nM | < 100 nM | < 100 nM | < 500 nM | < 200 nM | < 200 nM
3 | C=C(F)C(=O)N1CCN(c2c(C#N)c(OC[C@@H]3CCCN3C)nc3c(F)c(-c4ccc(F)c5sc(N)nc45)c(Cl)cc23)CC1 [Example 14] | > 30 min | > 30 min | > 30 min | – | 50 to 200 nM | – | – | 0.9 nM | – | – | – | –
4 | C=CC(=O)N1CCN(c2nc(OC[C@@H]3CCCN3C)nc3c(F)c(-c4ccc(F)c5sc(N)nc45)c(Cl)cc23)[C@@H](C)C1 [Example 23, 1-((3S)-4-(7-(2-Amino-7-Fluorobenzo [d]thiazol-4-yl) -6-Chloro-8-Fluoro-2-(((S)-1-Methylpyrrolin-2-yl) Methoxy) Quinazolin-4-yl)-3-Methylpiperazin-1-yl) Prop-2-En-1-One] | > 30 min | – | – | > 30 min | < 50 nM | – | – | 1.2 nM | – | – | – | –
5 | C=CC(=O)N1CCN(c2nc(OC[C@@H]3CCCN3C)nc3c(F)c(-c4ccc(F)c5sc(N)nc45)c(Cl)cc23)CC1 [Example 1, 1-(4-(7-(2-Amino-7-Fluorobenzo [d] Thiazol-4-yl) -6-Chloro-8-Fluoro-2-(((S)-1-Methylpyrrolin-2-yl) Methoxy) Quinazolin-4-yl) Piperazin-1-Yl) Prop-2-En-1-One] | – | > 30 min | – | – | < 50 nM | < 500 nM | – | – | < 100 nM | < 500 nM | – | –
6 | C=CC(=O)N1CCN(c2c(C#N)c(OCCN(C)C)nc3c(F)c(-c4ccc(F)c5sc(N)nc45)c(Cl)cc23)CC1 [Example 20, 4-(4-Acryloyl Piperazin-1-yl)-7-(2-Amino-7-Fluorobenzo [d] Thiazol-4-yl) -6-Chloro-2-(2-(Dimethylamino) Ethoxy)-8-Fluoroquinolin-3 -Cyano] | > 30 min | – | > 30 min | > 30 min | < 50 nM | < 500 nM | – | – | < 100 nM | < 500 nM | < 200 nM | < 200 nM
